# Reference: ChEMBL document CHEMBL4507285, “Data for DCP probe MRL-SYKi” (2021)
# How the values were obtained:
# [1] = system: ALK tyrosine kinase receptor (Homo sapiens), Q9UM73 [L1196M]; details: Compound concentration 100.0 nM
# [2] = target: G protein-coupled receptor kinase 3 (Homo sapiens) (UniProt P35626); details: Compound concentration 100.0 nM
# [3] = target: Phosphatidylinositol 4-phosphate 5-kinase type-1 gamma (Homo sapiens) (UniProt O60331); details: Compound concentration 100.0 nM
# [4] = target: Serine/threonine-protein kinase 38 (Homo sapiens) (UniProt Q15208); details: Compound concentration 100.0 nM
# [5] = target: Serine/threonine-protein kinase 26 (Homo sapiens) (UniProt Q9P289); details: Compound concentration 100.0 nM
# [6] = system: Epidermal growth factor receptor (Homo sapiens), P00533 [UNDEFINED MUTATION]; details: Compound concentration 100.0 nM
# [7] = target: Protein-tyrosine kinase 2-beta (Homo sapiens) (UniProt Q14289); details: Compound concentration 100.0 nM
# [8] = target: Ribosomal protein S6 kinase alpha-2 (Homo sapiens) (UniProt Q15349); details: Compound concentration 100.0 nM
# [9] = system: Tyrosine-protein kinase ABL1 (Homo sapiens), P00519 [Y253F]; details: Compound concentration 100.0 nM
# [10] = target: Serine/threonine-protein kinase SBK1 (Homo sapiens) (UniProt Q52WX2); details: Compound concentration 100.0 nM
# [11] = target: Glycogen synthase kinase-3 beta (Homo sapiens) (UniProt P49841); details: Compound concentration 100.0 nM
# [12] = target: Delta-type opioid receptor (Homo sapiens) (UniProt P41143); details: Compound concentration 10.0 uM
# [13] = target: Tyrosine-protein kinase Fyn (Homo sapiens, UniProt P06241); details: Compound concentration 100.0 nM
# [14] = system: Tyrosine-protein kinase ABL1 (Homo sapiens), P00519 [H396P]; details: Compound concentration 100.0 nM
# [15] = target: Death-associated protein kinase 3 (Homo sapiens) (UniProt O43293); details: Compound concentration 100.0 nM
# [16] = target: Mitogen-activated protein kinase kinase kinase 20 (Homo sapiens) (UniProt Q9NYL2); details: Compound concentration 100.0 nM
# Chain of Mitogen-activated protein kinase kinase kinase 20 (Homo sapiens) (Q9NYL2 2-800 limits assumed): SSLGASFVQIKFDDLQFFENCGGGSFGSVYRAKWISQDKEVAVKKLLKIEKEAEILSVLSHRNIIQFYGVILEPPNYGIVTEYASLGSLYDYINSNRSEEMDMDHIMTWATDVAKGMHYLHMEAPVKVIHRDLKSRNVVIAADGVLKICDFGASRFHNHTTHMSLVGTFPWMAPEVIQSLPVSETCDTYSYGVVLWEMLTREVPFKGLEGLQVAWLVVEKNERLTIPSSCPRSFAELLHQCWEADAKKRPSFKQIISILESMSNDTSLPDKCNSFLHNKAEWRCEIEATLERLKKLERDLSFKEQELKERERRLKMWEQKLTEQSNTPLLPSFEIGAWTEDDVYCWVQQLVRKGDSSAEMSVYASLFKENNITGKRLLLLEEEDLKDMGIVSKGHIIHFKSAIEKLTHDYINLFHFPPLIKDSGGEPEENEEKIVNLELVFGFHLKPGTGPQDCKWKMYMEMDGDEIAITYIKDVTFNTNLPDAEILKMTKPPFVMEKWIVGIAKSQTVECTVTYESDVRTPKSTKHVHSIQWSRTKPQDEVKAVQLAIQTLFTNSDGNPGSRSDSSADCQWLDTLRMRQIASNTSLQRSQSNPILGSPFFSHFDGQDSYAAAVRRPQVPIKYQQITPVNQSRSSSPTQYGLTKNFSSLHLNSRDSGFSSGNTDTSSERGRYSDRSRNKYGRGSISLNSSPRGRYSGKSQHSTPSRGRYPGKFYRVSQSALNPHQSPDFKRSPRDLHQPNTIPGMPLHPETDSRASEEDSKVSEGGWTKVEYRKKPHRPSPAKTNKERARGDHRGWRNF
# [17] = system: Serine/threonine-protein kinase B-raf (Homo sapiens), P15056 [V600E]; details: Compound concentration 100.0 nM
# Chain of Serine/threonine-protein kinase B-raf (Homo sapiens), P15056 [V600E] (P15056 whole entry V600E): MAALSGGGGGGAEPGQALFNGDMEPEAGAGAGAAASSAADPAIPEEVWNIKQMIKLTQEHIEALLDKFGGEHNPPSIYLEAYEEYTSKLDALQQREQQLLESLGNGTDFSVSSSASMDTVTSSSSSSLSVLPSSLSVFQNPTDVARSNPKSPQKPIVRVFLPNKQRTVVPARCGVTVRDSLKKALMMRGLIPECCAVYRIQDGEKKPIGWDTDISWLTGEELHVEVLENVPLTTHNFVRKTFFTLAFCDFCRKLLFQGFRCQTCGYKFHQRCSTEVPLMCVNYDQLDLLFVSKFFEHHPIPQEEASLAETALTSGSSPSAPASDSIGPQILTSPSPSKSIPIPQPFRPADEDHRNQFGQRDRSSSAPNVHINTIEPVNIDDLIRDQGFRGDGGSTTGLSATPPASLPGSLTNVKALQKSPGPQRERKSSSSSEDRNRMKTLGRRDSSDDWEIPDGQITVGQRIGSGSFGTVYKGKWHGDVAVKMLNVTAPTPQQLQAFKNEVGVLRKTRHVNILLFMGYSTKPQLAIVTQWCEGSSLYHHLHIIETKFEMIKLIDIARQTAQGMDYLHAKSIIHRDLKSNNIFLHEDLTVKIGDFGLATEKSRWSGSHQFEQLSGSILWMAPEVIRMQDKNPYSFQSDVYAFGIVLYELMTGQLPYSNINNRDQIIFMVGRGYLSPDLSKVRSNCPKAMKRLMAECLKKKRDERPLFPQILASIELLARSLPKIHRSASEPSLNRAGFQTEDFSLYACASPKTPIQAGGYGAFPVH
# [18] = target: Serine/threonine-protein kinase DCLK3 (Homo sapiens) (UniProt Q9C098); details: Compound concentration 100.0 nM
# [19] = system: Phosphatidylinositol 4,5-bisphosphate 3-kinase catalytic subunit alpha isoform (Homo sapiens), P42336 [H1047L]; details: Compound concentration 100.0 nM
# [20] = target: Serine/threonine-protein kinase D3 (Homo sapiens) (UniProt O94806); details: Compound concentration 100.0 nM
# Chain of Serine/threonine-protein kinase D3 (Homo sapiens) (O94806 whole entry): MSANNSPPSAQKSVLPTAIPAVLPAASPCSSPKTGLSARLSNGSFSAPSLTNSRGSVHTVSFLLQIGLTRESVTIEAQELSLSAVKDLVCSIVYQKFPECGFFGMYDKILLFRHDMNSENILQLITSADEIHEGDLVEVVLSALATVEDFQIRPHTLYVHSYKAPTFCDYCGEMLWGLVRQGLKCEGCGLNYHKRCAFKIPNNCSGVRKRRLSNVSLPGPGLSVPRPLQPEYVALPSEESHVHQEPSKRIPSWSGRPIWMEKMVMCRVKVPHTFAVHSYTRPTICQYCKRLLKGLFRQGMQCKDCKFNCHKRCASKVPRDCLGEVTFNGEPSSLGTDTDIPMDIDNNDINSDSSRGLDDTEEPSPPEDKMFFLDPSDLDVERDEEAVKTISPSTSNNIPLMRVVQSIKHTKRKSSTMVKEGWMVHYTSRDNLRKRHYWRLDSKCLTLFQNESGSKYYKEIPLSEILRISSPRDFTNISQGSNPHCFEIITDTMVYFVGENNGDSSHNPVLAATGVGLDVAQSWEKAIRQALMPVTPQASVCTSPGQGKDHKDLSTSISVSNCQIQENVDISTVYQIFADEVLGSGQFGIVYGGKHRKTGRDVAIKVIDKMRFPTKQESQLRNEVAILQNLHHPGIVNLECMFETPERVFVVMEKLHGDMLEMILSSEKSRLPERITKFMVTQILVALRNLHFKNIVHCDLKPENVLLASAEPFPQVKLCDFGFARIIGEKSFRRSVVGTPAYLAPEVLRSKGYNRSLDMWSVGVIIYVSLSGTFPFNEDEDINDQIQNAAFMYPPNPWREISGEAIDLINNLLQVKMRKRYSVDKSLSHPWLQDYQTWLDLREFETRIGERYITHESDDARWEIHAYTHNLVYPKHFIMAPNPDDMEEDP
# [21] = target: Serine/threonine-protein kinase BRSK2 (Homo sapiens) (UniProt Q8IWQ3); details: Compound concentration 100.0 nM
# [22] = target: Death-associated protein kinase 2 (Homo sapiens) (UniProt Q9UIK4); details: Compound concentration 100.0 nM
# [23] = system: Hepatocyte growth factor receptor (Homo sapiens), P08581 [M1250T]; details: Compound concentration 100.0 nM
# [24] = target: Histamine H1 receptor (Homo sapiens) (UniProt P35367); details: Compound concentration 10.0 uM
# [25] = target: Rhodopsin kinase GRK1 (Homo sapiens) (UniProt Q15835); details: Compound concentration 100.0 nM
# Chain of Rhodopsin kinase GRK1 (Homo sapiens) (Q15835 whole entry): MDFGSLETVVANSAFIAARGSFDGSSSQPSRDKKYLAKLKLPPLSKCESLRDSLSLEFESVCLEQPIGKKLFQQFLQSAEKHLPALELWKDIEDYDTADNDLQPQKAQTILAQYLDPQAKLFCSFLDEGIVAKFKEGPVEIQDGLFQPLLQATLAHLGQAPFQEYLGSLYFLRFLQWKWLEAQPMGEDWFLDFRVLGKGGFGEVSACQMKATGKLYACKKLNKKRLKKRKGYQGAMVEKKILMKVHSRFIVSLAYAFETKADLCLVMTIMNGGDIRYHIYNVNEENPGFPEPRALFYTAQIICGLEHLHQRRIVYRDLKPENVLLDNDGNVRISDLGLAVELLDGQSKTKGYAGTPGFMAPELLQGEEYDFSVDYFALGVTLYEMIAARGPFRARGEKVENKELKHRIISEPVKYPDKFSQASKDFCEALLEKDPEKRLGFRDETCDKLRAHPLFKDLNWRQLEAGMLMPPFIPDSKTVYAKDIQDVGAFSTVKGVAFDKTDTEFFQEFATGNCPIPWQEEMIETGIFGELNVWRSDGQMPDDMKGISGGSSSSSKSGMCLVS
# [26] = target: Microtubule-associated serine/threonine-protein kinase 1 (Homo sapiens) (UniProt Q9Y2H9); details: Compound concentration 100.0 nM
# [27] = target: Tyrosine-protein kinase Tec (Homo sapiens) (UniProt P42680); details: Compound concentration 100.0 nM
# Chain of Tyrosine-protein kinase Tec (Homo sapiens) (P42680 whole entry): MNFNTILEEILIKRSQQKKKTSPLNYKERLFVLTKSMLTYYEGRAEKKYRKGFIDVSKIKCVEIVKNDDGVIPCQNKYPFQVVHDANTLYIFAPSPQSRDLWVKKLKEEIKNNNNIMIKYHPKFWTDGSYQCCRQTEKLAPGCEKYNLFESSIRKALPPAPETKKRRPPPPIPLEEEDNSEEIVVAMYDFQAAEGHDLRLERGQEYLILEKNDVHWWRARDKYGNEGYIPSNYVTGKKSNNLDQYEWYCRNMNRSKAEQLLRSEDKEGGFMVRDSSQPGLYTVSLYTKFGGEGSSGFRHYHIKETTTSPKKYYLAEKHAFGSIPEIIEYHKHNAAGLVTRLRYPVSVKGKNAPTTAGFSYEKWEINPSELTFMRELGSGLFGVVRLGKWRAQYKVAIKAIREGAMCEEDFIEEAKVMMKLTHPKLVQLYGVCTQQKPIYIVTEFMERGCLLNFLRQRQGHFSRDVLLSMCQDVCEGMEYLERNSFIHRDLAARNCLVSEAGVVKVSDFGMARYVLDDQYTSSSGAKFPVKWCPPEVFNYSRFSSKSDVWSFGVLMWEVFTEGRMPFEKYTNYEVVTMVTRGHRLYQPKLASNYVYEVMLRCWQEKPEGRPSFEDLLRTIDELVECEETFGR
# [28] = target: Serine/threonine-protein kinase 36 (Homo sapiens) (UniProt Q9NRP7); details: Compound concentration 100.0 nM
# [29] = system: Tyrosine-protein kinase ABL1 (Homo sapiens), P00519 [E255K]; details: Compound concentration 100.0 nM
# [30] = target: Calcium/calmodulin-dependent protein kinase type IV (Homo sapiens) (UniProt Q16566); details: Compound concentration 100.0 nM
# [31] = target: Serine/threonine-protein kinase MRCK beta (Homo sapiens) (UniProt Q9Y5S2); details: Compound concentration 100.0 nM
# [32] = system: Receptor-type tyrosine-protein kinase FLT3 (Homo sapiens), P36888 [D835Y]; details: Compound concentration 100.0 nM
# [33] = target: Serine/threonine-protein kinase PAK 1 (Homo sapiens) (UniProt Q13153); details: Compound concentration 100.0 nM
# [34] = target: 5-hydroxytryptamine receptor 5A (Homo sapiens) (UniProt P47898); details: Compound concentration 10.0 uM
# [35] = target: Cyclin-dependent kinase 17 (Homo sapiens) (UniProt Q00537); details: Compound concentration 100.0 nM
# [36] = target: T1, GABA-A receptor; anion channel (Rattus norvegicus) (UniProt O09028+P15431+P18506+P18508+P19969+P20236+P23574+P23576+P28471+P28473+P30191+P62813+P63079+P63138+Q91ZM7+Q9ES14); details: Compound concentration 10.0 uM
# [37] = target: Serine/threonine-protein kinase B-raf (Homo sapiens) (UniProt P15056); details: Compound concentration 100.0 nM
# Chain of Serine/threonine-protein kinase B-raf (Homo sapiens) (P15056 whole entry): as the sequence (P15056 whole entry V600E) above, with E600V counted along it
# [38] = target: T1, GABA-A receptor; anion channel (Rattus norvegicus); details: Compound concentration 10.0 uM; remark: listed apart in the source
# [39] = target: Serine/threonine-protein kinase PAK 4 (Homo sapiens) (UniProt O96013); details: Compound concentration 100.0 nM
# [40] = target: Proto-oncogene tyrosine-protein kinase Src (Homo sapiens, UniProt P12931); details: Compound concentration 100.0 nM
# [41] = target: Bone morphogenetic protein receptor type-2 (Homo sapiens) (UniProt Q13873); details: Compound concentration 100.0 nM
# [42] = target: Serine/threonine-protein kinase SIK3 (Homo sapiens) (UniProt Q9Y2K2); details: Compound concentration 100.0 nM
# Chain of Serine/threonine-protein kinase SIK3 (Homo sapiens) (Q9Y2K2 whole entry, looked up): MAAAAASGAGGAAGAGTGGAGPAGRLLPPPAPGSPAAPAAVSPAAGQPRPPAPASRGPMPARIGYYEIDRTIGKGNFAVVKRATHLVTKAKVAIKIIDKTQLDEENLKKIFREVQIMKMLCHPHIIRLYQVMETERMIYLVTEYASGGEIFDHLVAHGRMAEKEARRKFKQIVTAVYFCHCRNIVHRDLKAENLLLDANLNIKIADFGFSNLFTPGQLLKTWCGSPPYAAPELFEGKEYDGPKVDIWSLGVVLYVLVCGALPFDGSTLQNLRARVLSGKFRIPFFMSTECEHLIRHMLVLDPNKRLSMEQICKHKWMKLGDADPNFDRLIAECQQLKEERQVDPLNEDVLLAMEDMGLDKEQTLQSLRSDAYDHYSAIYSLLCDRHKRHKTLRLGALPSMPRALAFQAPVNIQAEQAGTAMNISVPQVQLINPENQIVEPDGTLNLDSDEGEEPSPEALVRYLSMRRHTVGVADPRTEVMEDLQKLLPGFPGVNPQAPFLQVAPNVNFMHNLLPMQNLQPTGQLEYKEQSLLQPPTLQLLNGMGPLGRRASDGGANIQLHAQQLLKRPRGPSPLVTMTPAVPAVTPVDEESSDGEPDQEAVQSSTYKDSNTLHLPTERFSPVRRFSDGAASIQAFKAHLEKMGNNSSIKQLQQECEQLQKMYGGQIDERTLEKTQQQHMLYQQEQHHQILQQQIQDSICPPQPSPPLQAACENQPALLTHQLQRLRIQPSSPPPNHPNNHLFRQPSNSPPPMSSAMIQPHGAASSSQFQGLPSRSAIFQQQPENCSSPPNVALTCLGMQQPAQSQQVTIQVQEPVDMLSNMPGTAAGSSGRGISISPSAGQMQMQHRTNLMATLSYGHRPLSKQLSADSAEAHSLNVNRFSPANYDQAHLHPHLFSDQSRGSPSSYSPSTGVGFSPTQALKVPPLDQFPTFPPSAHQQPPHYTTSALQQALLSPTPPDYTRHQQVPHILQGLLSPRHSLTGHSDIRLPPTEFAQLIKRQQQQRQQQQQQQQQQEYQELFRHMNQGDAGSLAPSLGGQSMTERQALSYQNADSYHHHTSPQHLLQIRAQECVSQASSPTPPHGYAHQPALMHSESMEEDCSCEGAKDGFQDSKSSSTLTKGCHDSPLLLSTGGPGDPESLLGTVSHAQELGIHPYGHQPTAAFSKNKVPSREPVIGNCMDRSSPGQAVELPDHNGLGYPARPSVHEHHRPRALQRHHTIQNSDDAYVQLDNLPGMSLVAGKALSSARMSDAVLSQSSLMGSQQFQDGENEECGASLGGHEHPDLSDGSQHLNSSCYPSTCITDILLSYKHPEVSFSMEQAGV
structure (smiles),measurement,setting,value
Cc1ccc(-c2cnc([C@@]3(O)CC[C@H](C(=O)O)C(C)(C)C3)s2)cc1Nc1cccc(C(F)(F)F)n1 [MRL-SYKi-NC],residual activity,[1],100%
same,residual activity,[2],98.3%
same,residual activity,[3],100%
same,residual activity,[4],87.9%
same,residual activity,[5],100%
same,residual activity,[6],100%
same,residual activity,[7],72.5%
same,residual activity,[8],100%
same,residual activity,[9],81.9%
same,residual activity,[10],51.1%
same,residual activity,[11],95.6%
same,inhibition,[12],25.1%
same,residual activity,[13],100%
same,residual activity,[14],87.2%
same,residual activity,[15],92.7%
same,residual activity,[16],96.9%
same,residual activity,[17],100%
same,residual activity,[18],76.2%
same,residual activity,[19],94.8%
same,residual activity,[20],100%
same,residual activity,[21],60.7%
same,residual activity,[22],84.8%
same,residual activity,[23],89%
same,inhibition,[24],9.09%
same,residual activity,[25],82.1%
same,residual activity,[26],100%
same,residual activity,[27],91.2%
same,residual activity,[28],95.5%
same,residual activity,[29],80.8%
same,residual activity,[30],100%
same,residual activity,[31],91.6%
same,residual activity,[32],94.1%
same,residual activity,[33],94.5%
same,inhibition,[34],-4.56%
same,residual activity,[35],100%
same,inhibition,[36],19%
same,residual activity,[37],100%
same,inhibition,[38],20.3%
same,residual activity,[39],100%
same,residual activity,[40],100%
same,residual activity,[41],54.9%
same,residual activity,[42],100%
Cc1cc(Nc2nccc(C)n2)cc(-c2cnc([C@@]3(O)CC[C@H](C(=O)O)C(C)(C)C3)s2)c1 [MRL-SYKi],residual activity,[1],100%
same,residual activity,[2],73.7%
same,residual activity,[3],92.4%
same,residual activity,[4],80.6%
same,residual activity,[5],100%
same,residual activity,[6],100%
same,residual activity,[7],100%
same,residual activity,[8],100%
same,residual activity,[9],100%
same,residual activity,[10],100%
same,residual activity,[11],100%
same,inhibition,[12],12.8%
same,residual activity,[13],36.1%
same,residual activity,[14],74.3%
same,residual activity,[15],100%
same,residual activity,[16],92.5%
same,residual activity,[17],100%
same,residual activity,[18],97.3%
same,residual activity,[19],81.7%
same,residual activity,[20],100%
same,residual activity,[21],100%
same,residual activity,[22],100%
same,residual activity,[23],93.7%
same,inhibition,[24],7.85%
same,residual activity,[25],71.7%
same,residual activity,[26],100%
same,residual activity,[27],75.2%
same,residual activity,[28],94.5%
same,residual activity,[29],55.1%
same,residual activity,[30],92.3%
same,residual activity,[31],100%
same,residual activity,[32],83.4%
same,residual activity,[33],100%
same,inhibition,[34],10%
same,residual activity,[35],73.2%
same,inhibition,[36],25.9%
same,residual activity,[37],100%
same,inhibition,[38],-2.68%
same,residual activity,[39],89.8%
same,residual activity,[40],53.7%
same,residual activity,[41],100%
same,residual activity,[42],100%
